Assay results as given in PMC10299677, “Fluorinated Benzofuran and Dihydrobenzofuran as Anti-Inflammatory and Potential Anticancer Agents” (International Journal of Molecular Sciences, 2023).

Tests used:
[1] = system: IL-6 mRNA; assay: LPS-dependent IL-6 mRNA in THP-1-derived macrophages (RT-PCR); type: cell-based, human; conditions: 50 µM, 10 ng/ml LPS 6 h
Method: F i g u re S3: Eff ect of benzofuran compounds on the lev els of LP S -dependent mRNA of CCL2 and IL-6 in THP-1 –deriv ed macrophages. Human-monoc yti c cell l ine-THP-1 wer e treat ed with PMA (25 nM for 48 hours) th en in cub ated with 50 μM compounds for 30 minutes b efo re the addit ion of 10 ng/ml LP S fo r 6 hours. Gene ex pression of IL6 and CCL2 were measur ed by RT-PCR and the v alu es wer e nor mal ized to GAPDH. Results represent means ± SEM by one way ANOVA followed by Dunnett test.

[2] = system: COX-2 protein expression; assay: COX-2 protein expression in LPS-treated macrophages (Western blot); type: cell-based, C57BL/6J mice; conditions: 10 µM for compounds 1, 7, 9, 50 µM for others, LPS 24 h
Method: Figure 4 Effects of the fluorinated benzofuran and dihydrobenzofuran on COX-2 and NOS2 protein expressions. COX-2 and NOS2 protein expressions were assessed in macrophages incubated with only 10 µM for compounds 1, 7, and 9, and 50 µM for the other compounds, for 30 min prior to the addition of 10 ng/mL LPS for 24 h. β-actin was used as a loading control, and densitometric analysis was performed using ImageJ software (NIH, MA). Data are expressed as fold of LPS-treated macrophages and represented as mean ± SEM of 4 different experiments; * p < 0.05 versus LPS (one-way ANOVA followed by Dunnett’s test).
Macrophages were incubated with the compounds for 30 min prior to the addition of 10 ng/mL LPS for 24 h. Protein levels for COX-2 and NOS2 were detected in LPS-stimulated macrophages. As previously described, 10 µg of total protein was assessed. The primary antibodies were developed and characterized as previously described: for COX-2, mouse monoclonal antibody anti-COX-2 (clone COX-214, 1/5000); for NOS2, rabbit polyclonal antibody anti-NOS2 (dilution1/2000 [33]). Antibodies anti-phospho-NF-κB (3033S), phospho-IκBα (9246S), and total IκBα (4814S) were from Cell Signaling Technologies (Danvers, MA, USA). Total NF-κB C-20 (sc-372) was from Santa Cruz Biotechnologies (Dallas, TX, USA), and mouse β-actin (dilution 1/10,000) (Sigma-Aldrich, A5441). Clarity™ western ECL substrate (Bio-Rad Laboratories 10-5061) was used according to the manufacturer’s instructions to reveal positive bands visualized using Bio-Rad ChemiDoc. For Bcl-2 and cleaved PARP-1, HCT116 cells were plated in 6-well plates (200,000 cells per well) for 24 h, and treated with compounds 1 and 2 at 10, 25, and 50 µM for 72 h. Supernatants and cells were collected and lysed using RIPA lysis buffer containing inhibitors of protease. Western blot of Bcl-2 and cleaved PARP-1 was performed using 25 µg of total protein with a rabbit polyclonal antibody anti-Bcl-2 (1/500) (Santa Cruz Biotechnology, sc-492), rabbit polyclonal antibody anti-PARP-1 (1/1000) (Santa Cruz Biotechnology, sc-7150), and mouse anti-β-actin (dilution 1/10,000) (Sigma-Aldrich, A5441).
Densitometric analyses were performed using ImageJ software (NIH, MA, USA). The ratio of the different analyzed bands to β-actin was determined and data are represented as fold change compared to the LPS-treated cells. Percentage of viable cells for proliferation assay was determined as percentage to control (non-treated cells). For TUNEL assay, apoptotic cells were quantified, and results were expressed as percentage to positive cells (cleaved DNA) compared to control (non-treated cells). Statistical analysis was performed using one-way ANOVA, followed by Dunnett’s multiple comparisons test using GraphPad Prism software. Differences were considered significant when p < 0.05.

[3] = system: PGE2; assay: PGE2 release in LPS-treated macrophages (BMDM); type: cell-based, C57BL/6J mice; conditions: 10 µM for compounds 1, 7, 9, 50 µM for others, 10 ng/mL LPS 24 h
Method: C57BL/6J (10–15 weeks old) male mice were obtained from the animal care facility at the American University of Beirut. All animal procedures were performed following the recommendations of the IACUC (Institutional Animal Care and Use Committee approval 16-09-M379). BMDMs were prepared and characterized as described previously by our group. BMDMs were isolated from C57BL/6J mice by flushing the femur and tibia with RPMI-1640 culture media (Sigma-Aldrich R7388), and cells were collected and centrifuged at 300× g for 5 min. The supernatant was discarded, and the pellet was resuspended in 2 mL red blood lysis 10% (Sigma-Aldrich R7767) medium in PBS and incubated for 5 min at room temperature. After diluting the suspension of cells with 5 mL of RPMI containing 10% FBS and 1% penicillin–streptomycin, cells were centrifuged at 300× g for 5 min, and the cell pellet was resuspended in RPMI media containing 10% FBS supplemented with 15% L929-conditioned medium containing macrophage-colony stimulating factor (M-CSF1) and plated on […]. Cells were allowed to proliferate and differentiate for 5–6 days. Cells were harvested, washed, and allowed to adhere overnight in RPMI containing 10% FBS for treatment. Cells were previously characterized by flow cytometry as macrophages using this method. […] Cells were plated at 0.8 × 10^6 cells per 3.8 cm^2 well [27].
BMDMs were then treated with different concentrations of the benzofuran and dihydrobenzofuran derivatives for 30 min prior to the addition of 10 ng/mL LPS for 24 h. […] The supernatants were assessed for IL-6, PGE2, CCL2, and nitrite, the stable derivative of NO, as described previously.
(§1) IL-6, CCL2, nitrite (for NO), and PGE2 concentrations from 3–5 independent experiments were expressed as percentage of LPS alone and as mean ± SEM. COX activity was determined as percentage of PGE2 produced from exogenous arachidonic acid. Curve fitting and calculation of IC50 values were performed using GraphPad Prism (version 9.5.1 Software, La Jolla, CA, USA).

[4] = target: T1, COX-1 (Homo sapiens, UniProt P23219); assay: COX-1 activity: PGE2 from exogenous arachidonic acid in HEK-293 cells overexpressing COX-1; type: cell-based; conditions: 10 µM for compounds 1, 7, 9, 50 µM for others; 10 µM arachidonic acid
T1 construct: expressed in transfected cells
Method: Figure 3 Effects of the fluorinated benzofuran and dihydrobenzofuran on COX-1 and COX-2 activities. (A) Illustration for COX-1 activity assay. HEK-293 cells stably overexpressing COX-1 are treated with the nine derivatives of benzofuran at concentrations of only 10 µM for compounds 1, 7, and 9, and 50 µM for the other compounds, 30 min prior to the addition of 10 µM arachidonic acid (AA). […] (B) COX-1 activity. […] Levels of PGE2 were very low in the absence of arachidonic acid (0.04 ± 0.01 ng/mL) and 104.3 ± 16.7 ng/mL for 10 µM AA. (C) Illustration for COX-2 activity determination. Macrophages are treated with 10 µM of aspirin (ASA) for 30 min to block basal COX activity, washed, and treated with 10 ng/mL LPS for 24 h to induce COX-2. Cells are then washed and incubated 30 min with 50 µM of the different compounds prior to the addition of 10 µM of AA. The produced PGE2 mainly reflects COX-2 activity. (D) COX-2 activity. Percentage of LPS-treated cells was calculated, and data are represented as mean ± SEM (n = 4); * p < 0.05 versus AA for COX-1 activity, and versus LPS + ASA + AA for COX-2 activity (one-way ANOVA followed by Dunnett’s test). […] Levels of PGE2 were very low in the absence of arachidonic acid (0.06 ± 0.01 ng/mL) and 71.7 ± 5.7 ng/mL for 10 µM AA.
COX-1 and COX-2 activities were performed as described previously in human embryonic kidney cell line (HEK-293) stably overexpressing COX-1 [19] and in macrophages, respectively. […] For both COX-1 and COX-2 assays, the benzofuran compounds were then added to the cells for 30 min prior to the incubation with 10 µM arachidonic acid for another 30 min. PGE2 was then measured using an enzyme immunoassay, as described previously.
as §1

[5] = Toxicity on macrophages (BMDM), WST-1 assay; type: cell-based, C57BL/6J mice; conditions: C57BL/6J, mouse, bone marrow-derived macrophages (BMDM), read-out: macrophage viability
Method: WST-1 assay (Sigma-Aldrich, 5015944001) was used to determine the toxicity of the synthesized compounds on BMDM and HCT116 (ATCC, CCL-247), kindly provided by Dr. Nadine Darwiche, Department of Biochemistry and Molecular Genetics, American University of Beirut, Lebanon. Briefly, macrophages (50,000 cells per well) and HCT116 (20,000 cells per well) were plated in a 96-well plate in RPMI 1640 culture medium containing 10% fetal bovine serum (FBS) and grown for 24 h. Cells (in triplicates) were treated with 10 or 50 μM of the compounds for macrophages, and 50 or 100 μM for HCT116. Culture medium without cells and cells without treatment were used as basal and maximal activity, respectively. Results were expressed as percentage of cells without treatment.
F i g u re S1: E ff e c t of fluorin at ed benzofuran derivatives on m acrophages
viabilit y. C ells in cub at ed with 10 and 50 μM of benzofuran d eri vativ es
(compounds 1 to 9) bel onging to groups І, II, III and IV for 24 hours. Cell
viabilit y w as det ermin ed by WST-1 assay. Non-t r eated m acrophages wer e used
as cont rol. Results were shown as mean ± SEM (n=3) . *p< 0.05 comp ar ed to the
vehicle –treated cells (basal), one-way ANOVA followed by Dunnett’s test.
(1 picture or pasted object on this page, not shown here)

T1 sequence (P23219 24-599): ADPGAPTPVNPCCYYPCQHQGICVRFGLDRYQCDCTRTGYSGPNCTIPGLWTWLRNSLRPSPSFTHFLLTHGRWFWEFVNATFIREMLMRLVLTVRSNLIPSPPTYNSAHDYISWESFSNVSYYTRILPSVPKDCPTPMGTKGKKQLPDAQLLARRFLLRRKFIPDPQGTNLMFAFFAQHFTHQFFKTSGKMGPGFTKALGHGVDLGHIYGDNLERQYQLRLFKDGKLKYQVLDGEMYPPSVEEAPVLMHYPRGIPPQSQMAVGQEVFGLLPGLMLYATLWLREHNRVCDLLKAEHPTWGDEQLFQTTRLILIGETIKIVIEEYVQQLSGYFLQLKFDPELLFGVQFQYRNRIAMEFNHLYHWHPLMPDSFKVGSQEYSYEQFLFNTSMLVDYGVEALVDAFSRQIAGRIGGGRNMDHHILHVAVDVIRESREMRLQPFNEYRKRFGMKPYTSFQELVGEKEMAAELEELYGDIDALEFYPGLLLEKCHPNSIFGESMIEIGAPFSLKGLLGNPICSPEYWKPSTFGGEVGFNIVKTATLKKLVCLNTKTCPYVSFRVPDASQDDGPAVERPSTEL

SMILES	effect on IL-6 mRNA levels [1]	effect on LPS-induced COX-2 protein expression [2]	effect on PGE2 production in response to LPS [3]	effect on COX-1 activity [4]	viability at 24 h, 50 µM [5] [%]
O=C(O)/C=C1/Oc2ccccc2C1(F)F [Compound 4]	to a lesser extent	loss of this inhibitory effect	–	–	–
COC(=O)CC1(SCCO)Oc2ccc(Br)cc2C1(F)F (stereo not drawn) [Compound 7]	–	–	loss of the inhibitory activity	loss of the inhibitory activity	50
COC(=O)C1CC(C)=C(C)CC12Oc1ccc(Br)cc1C2(F)F (stereo not drawn) [Compound 9]	–	–	–	–	50
